Test: wn = mass fraction of the nth substance listed
Settings: 101 kPa, Liquid, Digital holographic interferometer

[Cl-].[K+] [potassium chloride] + O
binary diffusion coefficient (298.15 K, w1 = 0.025): 1.85e-09 m2/s

[Cl-].[Na+] [sodium chloride] + O
binary diffusion coefficient (298.15 K, w1 = 0.018): 1.47e-09 m2/s

CC(C)CCO [3-methylbutan-1-ol] + CCCCCCC
binary diffusion coefficient (288.15 K, w1 = 0.05): 1.74e-09 m2/s
binary diffusion coefficient (288.15 K, w1 = 0.15): 1.25e-09 m2/s
binary diffusion coefficient (288.15 K, w1 = 0.25): 9.07e-10 m2/s
binary diffusion coefficient (288.15 K, w1 = 0.35): 6.95e-10 m2/s
binary diffusion coefficient (288.15 K, w1 = 0.45): 6.1e-10 m2/s
binary diffusion coefficient (288.15 K, w1 = 0.55): 5.7e-10 m2/s
binary diffusion coefficient (288.15 K, w1 = 0.65): 6.18e-10 m2/s
binary diffusion coefficient (288.15 K, w1 = 0.75): 6.65e-10 m2/s
binary diffusion coefficient (288.15 K, w1 = 0.85): 7.11e-10 m2/s
binary diffusion coefficient (288.15 K, w1 = 0.95): 7.46e-10 m2/s
binary diffusion coefficient (298.15 K, w1 = 0.05): 1.99e-09 m2/s
binary diffusion coefficient (298.15 K, w1 = 0.15): 1.52e-09 m2/s
binary diffusion coefficient (298.15 K, w1 = 0.25): 1.17e-09 m2/s
binary diffusion coefficient (298.15 K, w1 = 0.35): 9.75e-10 m2/s
binary diffusion coefficient (298.15 K, w1 = 0.45): 8.69e-10 m2/s
binary diffusion coefficient (298.15 K, w1 = 0.55): 8.42e-10 m2/s
binary diffusion coefficient (298.15 K, w1 = 0.65): 8.91e-10 m2/s
binary diffusion coefficient (298.15 K, w1 = 0.75): 9.46e-10 m2/s
binary diffusion coefficient (298.15 K, w1 = 0.85): 9.85e-10 m2/s
binary diffusion coefficient (298.15 K, w1 = 0.95): 1.01e-09 m2/s
binary diffusion coefficient (308.15 K, w1 = 0.05): 2.28e-09 m2/s
binary diffusion coefficient (308.15 K, w1 = 0.15): 1.83e-09 m2/s
binary diffusion coefficient (308.15 K, w1 = 0.25): 1.44e-09 m2/s
binary diffusion coefficient (308.15 K, w1 = 0.35): 1.27e-09 m2/s
binary diffusion coefficient (308.15 K, w1 = 0.45): 1.15e-09 m2/s
binary diffusion coefficient (308.15 K, w1 = 0.55): 1.13e-09 m2/s
binary diffusion coefficient (308.15 K, w1 = 0.65): 1.17e-09 m2/s
binary diffusion coefficient (308.15 K, w1 = 0.75): 1.22e-09 m2/s
binary diffusion coefficient (308.15 K, w1 = 0.85): 1.29e-09 m2/s
binary diffusion coefficient (308.15 K, w1 = 0.95): 1.32e-09 m2/s
binary diffusion coefficient (318.15 K, w1 = 0.05): 2.54e-09 m2/s
binary diffusion coefficient (318.15 K, w1 = 0.15): 2.09e-09 m2/s
binary diffusion coefficient (318.15 K, w1 = 0.25): 1.75e-09 m2/s
binary diffusion coefficient (318.15 K, w1 = 0.35): 1.55e-09 m2/s
binary diffusion coefficient (318.15 K, w1 = 0.45): 1.43e-09 m2/s
binary diffusion coefficient (318.15 K, w1 = 0.55): 1.4e-09 m2/s
binary diffusion coefficient (318.15 K, w1 = 0.65): 1.46e-09 m2/s
binary diffusion coefficient (318.15 K, w1 = 0.75): 1.52e-09 m2/s
binary diffusion coefficient (318.15 K, w1 = 0.85): 1.56e-09 m2/s
binary diffusion coefficient (318.15 K, w1 = 0.95): 1.58e-09 m2/s

[Cl-].[Li+] [lithium chloride] + O
binary diffusion coefficient (298.15 K, w1 = 0.011): 1.31e-09 m2/s
binary diffusion coefficient (298.15 K, w1 = 0.027): 1.23e-09 m2/s

CCC(C)CO (centres undefined) [2-methyl-1-butanol] + CCCCCCC
binary diffusion coefficient (288.15 K, w1 = 0.05): 1.02e-09 m2/s
binary diffusion coefficient (288.15 K, w1 = 0.15): 8.91e-10 m2/s
binary diffusion coefficient (288.15 K, w1 = 0.25): 7.99e-10 m2/s
binary diffusion coefficient (288.15 K, w1 = 0.35): 6.91e-10 m2/s
binary diffusion coefficient (288.15 K, w1 = 0.45): 6.03e-10 m2/s
binary diffusion coefficient (288.15 K, w1 = 0.55): 5.26e-10 m2/s
binary diffusion coefficient (288.15 K, w1 = 0.65): 4.81e-10 m2/s
binary diffusion coefficient (288.15 K, w1 = 0.75): 4.52e-10 m2/s
binary diffusion coefficient (288.15 K, w1 = 0.85): 4.61e-10 m2/s
binary diffusion coefficient (288.15 K, w1 = 0.95): 4.83e-10 m2/s
binary diffusion coefficient (298.15 K, w1 = 0.05): 1.24e-09 m2/s
binary diffusion coefficient (298.15 K, w1 = 0.15): 1.11e-09 m2/s
binary diffusion coefficient (298.15 K, w1 = 0.25): 1.01e-09 m2/s
binary diffusion coefficient (298.15 K, w1 = 0.35): 9.24e-10 m2/s
binary diffusion coefficient (298.15 K, w1 = 0.45): 8.43e-10 m2/s
binary diffusion coefficient (298.15 K, w1 = 0.55): 7.55e-10 m2/s
binary diffusion coefficient (298.15 K, w1 = 0.65): 7.02e-10 m2/s
binary diffusion coefficient (298.15 K, w1 = 0.75): 6.8e-10 m2/s
binary diffusion coefficient (298.15 K, w1 = 0.85): 6.9e-10 m2/s
binary diffusion coefficient (298.15 K, w1 = 0.95): 7.04e-10 m2/s
binary diffusion coefficient (308.15 K, w1 = 0.05): 1.49e-09 m2/s
binary diffusion coefficient (308.15 K, w1 = 0.15): 1.34e-09 m2/s
binary diffusion coefficient (308.15 K, w1 = 0.25): 1.24e-09 m2/s
binary diffusion coefficient (308.15 K, w1 = 0.35): 1.15e-09 m2/s
binary diffusion coefficient (308.15 K, w1 = 0.45): 1.08e-09 m2/s
binary diffusion coefficient (308.15 K, w1 = 0.55): 9.81e-10 m2/s
binary diffusion coefficient (308.15 K, w1 = 0.65): 9.31e-10 m2/s
binary diffusion coefficient (308.15 K, w1 = 0.75): 9.25e-10 m2/s
binary diffusion coefficient (308.15 K, w1 = 0.85): 9.36e-10 m2/s
binary diffusion coefficient (308.15 K, w1 = 0.95): 9.41e-10 m2/s
binary diffusion coefficient (318.15 K, w1 = 0.05): 1.73e-09 m2/s
binary diffusion coefficient (318.15 K, w1 = 0.15): 1.58e-09 m2/s
binary diffusion coefficient (318.15 K, w1 = 0.25): 1.5e-09 m2/s
binary diffusion coefficient (318.15 K, w1 = 0.35): 1.4e-09 m2/s
binary diffusion coefficient (318.15 K, w1 = 0.45): 1.33e-09 m2/s
binary diffusion coefficient (318.15 K, w1 = 0.55): 1.24e-09 m2/s
binary diffusion coefficient (318.15 K, w1 = 0.65): 1.17e-09 m2/s
binary diffusion coefficient (318.15 K, w1 = 0.75): 1.16e-09 m2/s
binary diffusion coefficient (318.15 K, w1 = 0.85): 1.18e-09 m2/s
binary diffusion coefficient (318.15 K, w1 = 0.95): 1.19e-09 m2/s

Source: the NIST ThermoML archive (doi:10.1016/j.jct.2018.10.023)
